For this test, the target named is T1, Dimer of Gag-Pol polyprotein [489-587] (Human immunodeficiency virus 1, UniProt P12497).
T1 construct: 489-587
As to the kind of experiment: Protease Inhibition Assay. The conditions noted are these: pH 5; 30 °C.
Compound `CNC(=O)CN1[C@H](COc2ccccc2)[C@H](O)[C@@H](O)[C@@H](COc2ccccc2)N(CC(=O)NC)S1(=O)=O` [(3R,4S,5S,6R)-2,7-Bis[(N-methylcarbamoyl)methyl]-3,6-bis(phenoxymethyl)-4,5-dihydroxy-1,2,7-thiadiazepine 1,1-Dioxide] came in with a Ki of 25000 nM. In the case of `O=C(CN1[C@H](COc2ccccc2)[C@H](O)[C@@H](O)[C@@H](COc2ccccc2)N(Cc2cccc(-c3cccs3)c2)S1(=O)=O)Nc1nccs1` [(3R,4S,5S,6R)-3,6-Bis(phenoxymethyl)-4,5-dihydroxy-2-[(N-2-thiazolylcarbamoyl)methyl]-7-[3-(2-thienyl)benzyl]-1,2,7-thiadiazepine 1,1-Dioxide] it was 140 nM. The value for `CN1[C@H](COc2ccccc2)[C@H](O)[C@@H](O)[C@@H](COc2ccccc2)N(C)S1(=O)=O` [(3R,4S,5S,6R)-2,7-Bismethyl-3,6-bis(phenoxymethyl)-4,5-dihydroxy-1,2,7-thiadiazepine 1,1-Dioxide] was 710 nM. In the case of `O=S1(=O)N(Cc2ccc(CO)cc2)[C@H](COc2ccccc2)[C@H](O)[C@@H](O)[C@@H](COc2ccccc2)N1Cc1ccc(CO)cc1` it was 3.1 nM; in that of `O=C(CN1[C@H](COc2ccccc2)[C@H](O)[C@@H](O)[C@@H](COc2ccccc2)N(Cc2cccc(I)c2)S1(=O)=O)Nc1nccs1` [(3R,4S,5S,6R)-3,6-Bis(phenoxymethyl)-4,5-dihydroxy-7-(3-iodobenzyl)-2-[(N-2-thiazolylcarbamoyl)methyl]-1,2,7-thiadiazepine 1,1-Dioxide], 510 nM; in that of `O=S1(=O)N(Cc2cccc(-c3cccs3)c2)[C@H](COc2ccccc2)[C@H](O)[C@@H](O)[C@@H](COc2ccccc2)N1Cc1cccc(-c2cccs2)c1` [(3R,4S,5S,6R)-3,6-Bis(phenoxymethyl)-2,7-bis[3-(2-thienyl)benzyl]-4,5-dihydroxy-1,2,7-thiadiazepine 1,1-Dioxide], 2200 nM. `CC(=O)c1cccc(CN2[C@H](COc3ccccc3)[C@H](O)[C@@H](O)[C@@H](COc3ccccc3)N(Cc3cccc(C(C)=O)c3)S2(=O)=O)c1` gave a Ki of 59 nM. In the case of `O=S1(=O)N(Cc2cccc(CCO)c2)[C@H](COc2ccccc2)[C@H](O)[C@@H](O)[C@@H](COc2ccccc2)N1Cc1cccc(CCO)c1` it was 43 nM; in that of `O=S1(=O)N(Cc2ccc(-c3cccs3)cc2)[C@H](COc2ccccc2)[C@H](O)[C@@H](O)[C@@H](COc2ccccc2)N1Cc1cccc(-c2cccs2)c1` [(3R,4S,5S,6R)-4,5-dihydroxy-3,6-bis(phenoxymethyl)-7-{[3-(thiophen-2-yl)phenyl]methyl}-2-{[4-(thiophen-2-yl)phenyl]methyl}-1,2,7-thiadiazepane-1,1-dione], 6000 nM. The value for `O=C(CN1[C@H](COc2ccccc2)[C@H](O)[C@@H](O)[C@@H](COc2ccccc2)N(Cc2ccc(-c3cccs3)cc2)S1(=O)=O)Nc1nccs1` [2-[(3R,4S,5S,6R)-4,5-dihydroxy-1,1-dioxo-3,6-bis(phenoxymethyl)-7-{[4-(thiophen-2-yl)phenyl]methyl}-1,2,7-thiadiazepan-2-yl]-N-(1,3-thiazol-2-yl)acetamide] was 1800 nM. The value for `O=S1(=O)N(Cc2ccc(-c3cccs3)cc2)[C@H](COc2ccccc2)[C@H](O)[C@@H](O)[C@@H](COc2ccccc2)N1Cc1ccc(-c2cccs2)cc1` [(3R,4S,5S,6R)-4,5-dihydroxy-3,6-bis(phenoxymethyl)-2,7-bis({[4-(thiophen-2-yl)phenyl]methyl})-1,2,7-thiadiazepane-1,1-dione] was 920 nM; that for `O=C(CN1[C@H](COc2ccccc2)[C@H](O)[C@@H](O)[C@@H](COc2ccccc2)N(Cc2ccccc2)S1(=O)=O)Nc1nccs1` [(3R,4S,5S,6R)-3,6-Bis(phenoxymethyl)-4,5-dihydroxy-7-benzyl-2-[(N-2-thiazolylcarbamoyl)methyl]-1,2,7-thiadiazepine 1,1-Dioxide] was 350 nM; that for `CC(N=O)c1cccc(CN2[C@H](COc3ccccc3)[C@H](O)[C@@H](O)[C@@H](COc3ccccc3)N(Cc3cccc(C(C)N=O)c3)S2(=O)=O)c1` (stereo not given in full) was 3.4 nM. `COC(Cc1cccc(CN2[C@H](COc3ccccc3)[C@H](O)[C@@H](O)[C@@H](COc3ccccc3)N(Cc3cccc(CC(OC)OC)c3)S2(=O)=O)c1)OC` [(3R,4S,5S,6R)-2,7-bis({[3-(2,2-dimethoxyethyl)phenyl]methyl})-4,5-dihydroxy-3,6-bis(phenoxymethyl)-1,2,7-thiadiazepane-1,1-dione] came in with a Ki of 540 nM. In turn, `CN1[C@H](COc2ccccc2)[C@H](O)[C@@H](O)[C@@H](COc2ccccc2)N(Cc2ccccc2)S1(=O)=O` [(3R,4S,5S,6R)-3,6-Bis(phenoxymethyl)-4,5-dihydroxy-7-methyl-2-benzyl-1,2,7-thiadiazepine 1,1-Dioxide] yielded an inhibitory constant (Ki) of 510 nM. Compound `COC(=O)c1ccc(CN2[C@H](COc3ccccc3)[C@H](O)[C@@H](O)[C@@H](COc3ccccc3)N(Cc3ccc(C(=O)OC)cc3)S2(=O)=O)cc1` came in with a Ki of 84 nM. The value for `O=S1(=O)N(Cc2cccc(I)c2)[C@H](COc2ccccc2)[C@H](O)[C@@H](O)[C@@H](COc2ccccc2)N1Cc1cccc(I)c1` was 93 nM. In the case of `CNC(=O)c1cccc(CN2[C@H](COc3ccccc3)[C@H](O)[C@@H](O)[C@@H](COc3ccccc3)N(Cc3cccc(C(=O)NC)c3)S2(=O)=O)c1` [(3R,4S,5S,6R)-2,7-Bis[3-(N-methylcarbamoyl)benzyl]-3,6-bis(phenoxymethyl)-4,5-dihydroxy-1,2,7-thiadiazepine 1,1-Dioxide] it was 39 nM. In the case of `CNC(=O)CN1[C@H](COc2ccccc2)[C@H](O)[C@@H](O)[C@@H](COc2ccccc2)N(Cc2ccccc2)S1(=O)=O` [2-[(3R,4S,5S,6R)-7-benzyl-4,5-dihydroxy-1,1-dioxo-3,6-bis(phenoxymethyl)-1,2,7-thiadiazepan-2-yl]-N-methylacetamide] it was 1400 nM; in that of `O=S1(=O)N(Cc2ccccc2)[C@H](COc2ccccc2)[C@H](O)[C@@H](O)[C@@H](COc2ccccc2)N1Cc1ccc(-c2cccs2)cc1` [(3R,4S,5S,6R)-2-benzyl-4,5-dihydroxy-3,6-bis(phenoxymethyl)-7-{[4-(thiophen-2-yl)phenyl]methyl}-1,2,7-thiadiazepane-1,1-dione], 63 nM.

Values taken from BindingDB's records for doi:10.1021/jm001024j (Uppsala University, 2001).
